Here are results for five compounds from patent US20080125432A1 (Devgen NV, priority 2004, published 2008).

One assay addresses T1, human Kv4.3 (Homo sapiens, UniProt Q9UK17).
T1 construct: expressed in transfected cells; host or cells: transgenic C. elegans strain UG1755 (N2 injected with plasmid pGV8, integrated array)
T1 sequence (Q9UK17 1-655): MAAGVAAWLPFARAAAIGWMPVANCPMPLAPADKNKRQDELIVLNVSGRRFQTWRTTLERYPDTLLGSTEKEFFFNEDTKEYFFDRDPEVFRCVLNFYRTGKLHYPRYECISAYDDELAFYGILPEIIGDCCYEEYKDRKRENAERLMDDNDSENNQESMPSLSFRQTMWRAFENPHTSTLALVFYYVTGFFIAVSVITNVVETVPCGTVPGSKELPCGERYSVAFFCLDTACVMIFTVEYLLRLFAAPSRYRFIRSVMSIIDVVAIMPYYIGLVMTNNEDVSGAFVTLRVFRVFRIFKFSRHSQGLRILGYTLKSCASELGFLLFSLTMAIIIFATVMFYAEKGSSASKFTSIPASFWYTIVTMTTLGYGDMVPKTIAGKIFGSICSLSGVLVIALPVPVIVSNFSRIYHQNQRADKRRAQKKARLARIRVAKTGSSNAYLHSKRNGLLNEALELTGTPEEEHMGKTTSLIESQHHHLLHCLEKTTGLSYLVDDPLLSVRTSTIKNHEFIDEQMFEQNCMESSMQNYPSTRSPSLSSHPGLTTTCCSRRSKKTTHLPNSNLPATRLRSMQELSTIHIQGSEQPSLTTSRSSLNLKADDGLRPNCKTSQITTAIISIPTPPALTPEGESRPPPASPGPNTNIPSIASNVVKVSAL
Kind of assay: C. elegans based high-throughput screen for Kv4.3 modulators (pharynx pumping, Calcein AM uptake), transgenic strain UG1755. Format: in vivo. The settings on record: for Ratio N2/Kv4.3: EC50 on N2 divided by EC50 on the Kv4.3 expressing strain, cut-off 1.8; for EC50: transgenic strain UG1755 expressing human Kv4.3, read-out: EC50 (μM) Kv4.3 worm. An excerpt:
A C. elegans based high-throughput screen for Kv4.3 modulators has been used to establish an in vivo SAR (structure-activity relationships: the effect of chemical structure on biological activity) on Kv4.3 for the compounds according to the present invention.
This assay has employed a stable transgenic C. elegans strain that functionally expressed human Kv4.3 in the pharynx and a visible selection GFP maker in body-wall muscle.
The pharynx is the feeding organ of C. elegans and contracts rhythmically 3-4 times per second. The pharynx contraction is controlled by the nervous system via action potentials similar to the human myocyte and can thus be used to study human ion channel physiology in vivo in C. elegans.
Introducing the human Kv4.3 channel into the C. elegans pharynx influences the C. elegans action potential in a characteristic fashion. The additional number of potassium channels increases potassium ion efflux, enhances re-polarization and thereby shortens the action potential duration. […] The shortened action potentials of the C. elegans pharynx resulting from expression of human Kv4.3, changes the pharynx contraction-relaxation cycle and consequently reduces the pumping/feeding in these transgenic animals. This change of pumping is an end-point amenable to high-throughput screening technology. The pumping end-point can be technically translated into a high-throughput read-out by the use of a pro-fluorescent dye. The pro-fluorescent dye is taken up by C. elegans depending on its pumping activity and converted into a fluorescent dye by enzymes located in its intestines. After a defined incubation period, the change of fluorescence intensity in the intestine can be measured with a plate reader.
The screening of the compounds according to the present invention has been performed in the C. elegans based high-throughput screen for Kv4.3 modulators described above. The method for testing the activity on human Kv4.3 of the compounds according to the invention with C. elegans strains expressing human Kv4.3 for their activity is the same as the method described in WO 03/097682. The method for testing the compounds on wild-type C. elegans strains not expressing human Kv4.3 is the same as the method described in WO 00/63427. Briefly, UG1755 animals have been grown in large numbers and staged young adults (no or only few eggs inside the uterus) have been harvested on the day of screening. Approximately 125 animals in 80 μl buffer have been dispensed per well of a “U shaped 96-well compound plate The compound plate contained already compound material at a final concentration of 30 μM in 0.3% DMSO. After one hour incubation 10 μl of the fluorescent label Calcein AM (CAM) have been added to achieve a final concentration of 5 μM CAM and 0.8% DMSO. After another four hours of incubation at 20° C., the drinking of C. elegans animals (or the “reaction 8 measured by the uptake of CAM) has been stopped by adding 10 μl of a 60 μM ivermectin solution. The fluorescence intensity (counts per second) has been measured 40 minutes after adding ivermectin with the Wallac plate reader at a wavelength of 535 nm (after excitation at 485 nm).
The active compounds have been identified and confirmed by dose-response analysis. An EC50 has been calculated and the results are listed under Table 3. Dose-response curves have been obtained at concentrations of 30 μM. EC50 has been calculated using XLfit 2.09 software package.

Another assay has as its system Male mice (NRMI). In words: In vivo telemetry ECG recording in mice, intraperitoneal application. The settings on record: consecutive dosing i.p. (3-15 μM/kg), n=5. Here is the method:
Male mice (NRMI) were anesthetized with a gas mixture of isoflurane, nitrous oxide and oxigen. Leads connected to a telemetry transmitter (TA10EA-F20, DSI, St. Paul, USA) were fixed by suture in the xiphoid and ventral neck region. The telemetry transmitter was placed under the skin on the back. Wounds were closed in layers and the animals were allowed to recover for at least 1 week.
On the day of the experiment the animals receive consecutive doses of vehicle i.p. at 60 min dosing intervals. ECG tracings (12 s duration) was recorded using the Data Sciences A.R.T. system. After completion of the experiment ECGs were analyzed automatically by Data Sciences ECG software (DSI, St. Paul, USA). QT and QRS intervals were measured manually in the stored ECGs. QTc was calculated from the QT interval and the corresponding heart rate using Bazett's formula. Heart rate was taken from the online analysis, given by the DSI Labpro and DSI A.R.T. systems (DSI, St. Paul, USA). Finally, ECG intervals were transferred to an Excel spreadsheet, checked for plausibility, and converted into 15 min averages.

For orientation: EC50 means the concentration needed to bring the measured effect to its halfway point.

On to `Cc1nc(Nc2ccc(F)cc2)sc1C(=O)N[C@H](C)c1ccc2ccccc2c1` [Compound 16, 2-(4-fluoro-phenylamino)-4-methyl-thiazole-5-carboxylic acid (R)-1-(naphthalen-2-yl)ethyl amide], for which, on human Kv4.3, the “Ratio N2/Kv4.3” value is over 1.8 and the EC50 was 32.1 µM.
In the case of `COc1ccccc1Nc1nc(C)c(C(=O)N[C@H]2CCC[C@@H]2OCc2ccccc2)s1` [Compound 68, 2-(2-methoxy-phenylamino)-4-methyl-thiazole-5-carboxylic acid (1S,2S)-2-(benzyloxycyclopent-1-yl) amide], in the assay on Male mice (NRMI) (60 min dosing intervals), the “QT and QTc intervals in the mouse ECG” value is on record as “significant, dose-dependent but late onset prolongation”. For the same compound, in the assay with Male mice (NRMI), the Heart rate result was “minor and not significant decrease”; the Locomotor activity entry is “reproducible rise after each of the subsequent injections”; the “PQ and QRS in the mouse ECG” value is given as “did not show dose-dependent changes”.
Take `Cc1nc(Nc2ccc(Br)cc2)sc1C(=O)N[C@@H](C)c1ccc2ccccc2c1` [Compound 18, 2-(4-bromo-phenylamino)-4-methyl-thiazole-5-carboxylic acid (S)-1-(naphthalen-2-yl)ethyl amide]: at human Kv4.3, the “Ratio N2/Kv4.3” value is given as 2.4 and the EC50 was 13.5 µM.
For `Cc1nc(Nc2ccc(Cl)cc2)sc1C(=O)N[C@@H]1CCC[C@H]1OCc1ccccc1` [Compound 30, 2-(4-chloro-phenylamino)-4-methyl-thiazole-5-carboxylic acid (1R,2R)-2-(benzyloxycyclopent-1-yl) amide] the same measures were over 6.4 and 9 µM.
Regarding `Cc1nc(Nc2ccc(Br)cc2)sc1C(=O)N[C@H](C)c1ccc2ccccc2c1` [Compound 19, 2-(4-bromo-phenylamino)-4-methyl-thiazole-5-carboxylic acid (R)-1-(naphthalen-2-yl)ethyl amide], on human Kv4.3, the “Ratio N2/Kv4.3” value is 4.7 and the EC50 is 7 µM.
